# Experimental data reported in publication PMC7980035 (The Journal of Biological Chemistry, 2021).
# Where two headings read alike, the source gives them in different places.
# How the values were obtained:
# SARS 3C-like proteinase [1] = target: T1, SARS 3C-like proteinase (Severe acute respiratory syndrome coronavirus, UniProt P0C6X7); conditions: pH 7.3
# [2] = assay type: physicochemical; conditions: pH 7.3
# SARS 3C-like proteinase [3] = target: T1, SARS 3C-like proteinase; conditions: pH 7.3; remark: listed apart in the source
# [4] = pH 7.3
# [5] = target: SARS coronavirus 3C-like proteinase, C-terminal His6 tag (plasmid pET 3CLP-21x) (SARS coronavirus) (UniProt P0C6X7); experiment: SEC
Substance,Km (SARS 3C-like proteinase [1]),kcat (SARS 3C-like proteinase [1]),kcat/Km (SARS 3C-like proteinase [1]),Calculated secondary structure content: Helix [2],Calculated secondary structure content: Other [2],Calculated secondary structure content: Sheet [2],Calculated secondary structure content: Tum [2],kcat/Km (SARS 3C-like proteinase [3]),solubility [4],Kd [5]
ATVRLQ/AGNAT [Peptide S06],1440 ± 470 µM,0.0548 ± 0.0178 s⁻¹,2.29 ± 0.09 ^a mM^-1 min^-1,2,43,25,30,–,–,–
FYPKLQ/ASQAW [Peptide S11],549 ± 105 µM,0.0262 ± 0.00467 s⁻¹,2.86 ± 0.21 ^a mM^-1 min^-1,2,36,30,32,–,–,–
KVATVQ/SKMSD [Peptide S03],–,–,–,2,46,25,28,0.353 ± 0.013 ^b mM^-1 min^-1,–,–
NRATLQ/AIASE [Peptide S04],–,–,–,2,45,24,30,0.556 ± 0.126 ^b mM^-1 min^-1,–,–
NVATLQ/AENVT [Peptide S09],–,–,–,–,–,–,–,0.976 ± 0.014 ^b mM^-1 min^-1,very low solubility,–
PHTVLQ/AVGAC [Peptide S08],1940 ± 660 µM,0.028 ± 0.0095 s⁻¹,0.865 ± 0.028 ^a mM^-1 min^-1,5,45,21,29,–,–,–
REPLMQ/SADAS [Peptide S07],–,–,–,1,41,18,40,0.0176 ± 0.0022 ^b mM^-1 min^-1,–,–
"SARS coronavirus 3C-like proteinase, C-terminal His6 tag (plasmid pET 3CLP-21x) (from UniProt P0C6X7 3241-3546) (enzyme)",–,–,–,–,–,–,–,–,–,100 µM
SAVKLQ/NNELS [Peptide S05],–,–,–,10,44,19,27,0.202 ± 0.003 ^b mM^-1 min^-1,–,–
SGVTFQ/GKFKK [Peptide S02],583 ± 86 µM,0.0425 ± 0.00583 s⁻¹,4.38 ± 0.26 ^a mM^-1 min^-1,3,31,42,24,–,–,–
TFTRLQ/SLENV [Peptide S10],286 ± 20 µM,0.0141 ± 0.00085 s⁻¹,2.96 ± 0.11 ^a mM^-1 min^-1,4,41,22,33,–,–,–
